According to ChEMBL document CHEMBL1201862, “PubChem BioAssay data set” (2004):
Active and inactive are the calls of the source.

Tests used:
[1] = target: Cyclin-dependent kinase 5/CDK5 activator 1 (Homo sapiens, UniProt Q00535); assay: blockade of human CDK5 activity – biochemical, cherry-picked samples, set 2, dose response (AID 504545)
[2] = ADP-Glo luciferase signal interference – biochemical, luminescence, cherry-picked samples, set 2, artefact control for CDK5 inhibitor project, dose response (AID 504546); assay type: functional, cell-based
Perilipin-1/ABHD5 = Perilipin-1/ABHD5 (Homo sapiens, UniProt O60240+Q8WTS1); assay: Luminescence-based biochemical high throughput dose response assay for inhibitors of the interaction of the lipase co-activator protein, abhydrolase domain containing 5 (ABHD5) with perilipin-1 (PLIN1) (2K validation set). [Related pubchem assays (depositor defined):AID493027, AID493057]
Chain of Perilipin-1/ABHD5 (Q8WTS1 whole entry, the tested form may be a part): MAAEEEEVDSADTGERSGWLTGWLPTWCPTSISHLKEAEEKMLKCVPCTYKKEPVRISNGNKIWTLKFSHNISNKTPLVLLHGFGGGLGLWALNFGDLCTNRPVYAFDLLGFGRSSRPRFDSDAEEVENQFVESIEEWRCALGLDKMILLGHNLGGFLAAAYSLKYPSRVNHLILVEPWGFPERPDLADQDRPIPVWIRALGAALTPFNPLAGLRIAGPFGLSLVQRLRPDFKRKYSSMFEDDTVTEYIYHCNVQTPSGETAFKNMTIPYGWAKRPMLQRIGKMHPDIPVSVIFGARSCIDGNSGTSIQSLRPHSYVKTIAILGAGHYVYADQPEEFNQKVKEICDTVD
Chain of Perilipin-1/ABHD5 (O60240 whole entry, the tested form may be a part): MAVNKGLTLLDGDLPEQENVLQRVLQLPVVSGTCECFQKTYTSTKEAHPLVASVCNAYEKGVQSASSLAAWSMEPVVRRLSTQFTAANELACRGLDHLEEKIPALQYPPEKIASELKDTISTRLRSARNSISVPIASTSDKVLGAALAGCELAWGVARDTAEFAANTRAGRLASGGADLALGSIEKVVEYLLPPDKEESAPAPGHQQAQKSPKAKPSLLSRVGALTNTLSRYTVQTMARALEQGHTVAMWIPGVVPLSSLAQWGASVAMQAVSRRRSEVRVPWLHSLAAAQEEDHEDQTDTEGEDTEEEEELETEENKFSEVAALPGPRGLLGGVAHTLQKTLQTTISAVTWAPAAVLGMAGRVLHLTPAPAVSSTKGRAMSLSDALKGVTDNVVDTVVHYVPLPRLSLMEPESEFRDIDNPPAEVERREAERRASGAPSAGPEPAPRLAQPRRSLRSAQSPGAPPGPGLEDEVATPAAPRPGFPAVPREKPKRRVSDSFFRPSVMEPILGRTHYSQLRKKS

[3] = target: 1-acylglycerol-3-phosphate O-acyltransferase ABHD5/Perilipin-5 (Homo sapiens, UniProt Q00G26+Q8WTS1); assay: Luminescence-based biochemical high throughput dose response assay for inhibitors of the interaction of the lipase co-activator protein, abhydrolase domain containing 5 (ABHD5) with perilipin-5 (MLDP; PLIN5) (2K validation set). [Related pubchem assays (depositor defined):AID493035, AID493241]
[4] = target: Neuropeptides B/W receptor type 1 (Homo sapiens, UniProt P48145); assay: Fluorescence-based dose response cell-based high throughput screening assay to identify antagonists of the G-protein coupled receptor 7 (GPR7). [Related pubchem assays: 1952 (Screening assay (GPR7 antagonists).), 1880 (Summary AID.)]; assay type: functional
[5] = target: Melanin-concentrating hormone receptor 1 (Homo sapiens, UniProt Q99705); assay: Fluorescence-based counterscreen for antagonists of the G-protein coupled receptor 7 (GPR7): cell-based high throughput dose response assay to identify antagonists of the melanin-concentrating hormone receptor 1 (MCHR1).; assay type: functional
Staphylococcus aureus = assay: Inhibitors of Bacterial Quorum Sensing Structure Activity Relationship (SAR) Analysis: Dose Response Assay. [Related pubchem assays: 700, 527 ]; assay type: functional, organism-based
[6] = target: G-protein coupled receptor 35 (Homo sapiens, UniProt Q9HC97); assay: inhibition of zaprinast-stimulated GPR35 beta-arrestin translocation – imaging, U2OS, beta-arrestin-GFP, zaprinast agonist, primary screen (AID 2058); assay type: functional;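 further: antagonist potency meaning inhibition of agonist-induced arrestin redistribution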
Large T antigen = Large T antigen (Simian virus 40, UniProt P03070); assay: A confirmatory biochemical assay using the ADP-Hunter methodology, purified TAg, and ATP to quantify activity of synthesized compounds that inhibit the ATPase activity of Tag (3). [Related pubchem assays (depositor defined):AID1903, AID1909, AID2102, AID2501, AID2615, AID2775, AID435001, AID449729]; parameters: species or system Betapolyomavirus macacae
[7] = target: Dual specificity protein phosphatase 3 (Homo sapiens, UniProt P51452); assay: inhibition constants for human DUSP3 – biochemical, colorimetric, SAR follow-up (AID 2004)
Chain of Dual specificity protein phosphatase 3 (P51452 whole entry): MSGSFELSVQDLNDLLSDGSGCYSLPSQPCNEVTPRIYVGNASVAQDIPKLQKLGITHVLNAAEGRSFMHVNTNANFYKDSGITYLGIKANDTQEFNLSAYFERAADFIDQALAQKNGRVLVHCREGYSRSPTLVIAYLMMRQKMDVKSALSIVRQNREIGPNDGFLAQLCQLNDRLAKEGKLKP

[8] = target: T1, Alkaline phosphatase, tissue-nonspecific isozyme (Homo sapiens, UniProt P05186)
T1 sequence (P05186 whole entry): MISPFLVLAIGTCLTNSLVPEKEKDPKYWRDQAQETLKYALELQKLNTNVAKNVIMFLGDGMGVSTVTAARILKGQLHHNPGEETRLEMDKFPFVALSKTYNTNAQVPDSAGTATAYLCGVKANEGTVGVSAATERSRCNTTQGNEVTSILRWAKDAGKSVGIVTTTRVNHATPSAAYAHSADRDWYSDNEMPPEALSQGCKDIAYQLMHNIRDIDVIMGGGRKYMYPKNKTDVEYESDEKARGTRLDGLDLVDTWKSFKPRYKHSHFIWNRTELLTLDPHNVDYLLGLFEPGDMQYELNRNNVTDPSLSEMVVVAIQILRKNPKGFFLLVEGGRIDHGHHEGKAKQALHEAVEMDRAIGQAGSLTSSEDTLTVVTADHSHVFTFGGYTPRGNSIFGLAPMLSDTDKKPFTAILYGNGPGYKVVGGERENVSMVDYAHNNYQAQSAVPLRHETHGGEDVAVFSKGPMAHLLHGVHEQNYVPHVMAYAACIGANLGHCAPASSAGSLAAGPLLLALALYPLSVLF

[9] = Luminescence Cell-Based Dose Confirmation HTS to Identify Activators of 5'UTR Stem-Loop Driven Alpha-Synuclein mRNA Translation in H4 Neuroglioblastoma Cells. [Related pubchem assays: 1829 (Project Summary), 1814 (Primary HTS)]; assay type: functional
[10] = Luminescence-based cell-based high throughput dose response assay to identify activators of the DAF-12 from the parasite S. stercoralis (ssDAF-12).; assay type: functional
H4 = assay: Luminescence Cell-Based Dose Response HTS to Identify Activators of 5'UTR Stem-Loop Driven Prion Protein mRNA Translation in H4 Neuroglioblastoma Cells. [Related pubchem assays: 1829 (Project Summary), 1814 (Primary HTS)]; assay type: functional; conditions: Homo sapiens
[11] = Luminescence Cell-Based Dose Response HTS to Identify Activators of Luciferase Translation or Activity in H4 […] Cells. [Related pubchem assays: 1829 (Project Summary), 1814 (Primary HTS)]; assay type: functional
[12] = target: Mannose-6-phosphate isomerase (Homo sapiens, UniProt P34949); assay: MPI enzyme activity inhibition – biochemical, fluorescence intensity, coupled assay, primary screen (AID 1209)
Chain of Mannose-6-phosphate isomerase (P34949 whole entry): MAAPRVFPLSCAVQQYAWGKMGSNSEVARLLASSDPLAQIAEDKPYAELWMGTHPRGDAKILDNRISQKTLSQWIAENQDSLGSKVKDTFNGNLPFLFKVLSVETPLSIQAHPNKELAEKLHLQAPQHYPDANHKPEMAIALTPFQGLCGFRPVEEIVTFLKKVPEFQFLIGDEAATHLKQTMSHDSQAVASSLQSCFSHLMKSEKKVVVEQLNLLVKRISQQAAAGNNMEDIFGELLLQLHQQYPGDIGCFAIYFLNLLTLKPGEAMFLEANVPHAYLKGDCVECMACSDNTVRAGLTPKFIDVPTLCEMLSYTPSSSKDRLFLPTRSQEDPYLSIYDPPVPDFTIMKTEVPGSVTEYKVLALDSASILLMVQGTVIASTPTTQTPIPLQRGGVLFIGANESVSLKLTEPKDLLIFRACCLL

CAAX prenyl protease 2 = CAAX prenyl protease 2 (Saccharomyces cerevisiae S288c, UniProt Q03530); assay type: biochemical
Cytochrome P450 2C9 = Cytochrome P450 2C9 (Homo sapiens, UniProt P11712); conditions: Potency
Cytochrome P450 2D6 = Cytochrome P450 2D6 (Homo sapiens, UniProt P10635); assay: qHTS Assay for Inhibitors and Substrates of Cytochrome P450 2D6. [Related pubchem assays: 410 ]; assay type: ADME; conditions: read-out: Potency
Chain of Cytochrome P450 2D6 (P10635 whole entry): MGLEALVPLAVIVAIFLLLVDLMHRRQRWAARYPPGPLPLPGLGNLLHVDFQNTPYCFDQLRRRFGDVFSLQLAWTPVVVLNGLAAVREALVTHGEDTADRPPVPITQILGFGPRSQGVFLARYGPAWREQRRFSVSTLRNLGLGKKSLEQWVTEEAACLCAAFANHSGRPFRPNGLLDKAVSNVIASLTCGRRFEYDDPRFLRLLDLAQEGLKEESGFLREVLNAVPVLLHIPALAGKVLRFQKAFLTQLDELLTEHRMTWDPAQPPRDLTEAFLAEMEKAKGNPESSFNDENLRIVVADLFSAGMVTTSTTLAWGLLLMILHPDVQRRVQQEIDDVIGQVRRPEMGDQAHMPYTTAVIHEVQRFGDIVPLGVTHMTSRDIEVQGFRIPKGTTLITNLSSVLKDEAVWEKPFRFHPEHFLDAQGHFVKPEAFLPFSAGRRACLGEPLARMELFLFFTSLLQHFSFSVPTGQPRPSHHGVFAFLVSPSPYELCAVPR

ORF 73 = ORF 73 (Human herpesvirus 8, UniProt O40947); assay: KSHV LANA DNA-binding disruption – biochemical, fluorescence polarization, cherry-picked samples, dose response (AID 504725); parameters: species or system Human gammaherpesvirus 8;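 further: fluorescence polarization of a labeled DNA duplex reporting LANA DNA binding; potency is for inhibitors that block LANA binding to the DNA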
Chain of ORF 73 (O40947 whole entry, the tested form may be a part): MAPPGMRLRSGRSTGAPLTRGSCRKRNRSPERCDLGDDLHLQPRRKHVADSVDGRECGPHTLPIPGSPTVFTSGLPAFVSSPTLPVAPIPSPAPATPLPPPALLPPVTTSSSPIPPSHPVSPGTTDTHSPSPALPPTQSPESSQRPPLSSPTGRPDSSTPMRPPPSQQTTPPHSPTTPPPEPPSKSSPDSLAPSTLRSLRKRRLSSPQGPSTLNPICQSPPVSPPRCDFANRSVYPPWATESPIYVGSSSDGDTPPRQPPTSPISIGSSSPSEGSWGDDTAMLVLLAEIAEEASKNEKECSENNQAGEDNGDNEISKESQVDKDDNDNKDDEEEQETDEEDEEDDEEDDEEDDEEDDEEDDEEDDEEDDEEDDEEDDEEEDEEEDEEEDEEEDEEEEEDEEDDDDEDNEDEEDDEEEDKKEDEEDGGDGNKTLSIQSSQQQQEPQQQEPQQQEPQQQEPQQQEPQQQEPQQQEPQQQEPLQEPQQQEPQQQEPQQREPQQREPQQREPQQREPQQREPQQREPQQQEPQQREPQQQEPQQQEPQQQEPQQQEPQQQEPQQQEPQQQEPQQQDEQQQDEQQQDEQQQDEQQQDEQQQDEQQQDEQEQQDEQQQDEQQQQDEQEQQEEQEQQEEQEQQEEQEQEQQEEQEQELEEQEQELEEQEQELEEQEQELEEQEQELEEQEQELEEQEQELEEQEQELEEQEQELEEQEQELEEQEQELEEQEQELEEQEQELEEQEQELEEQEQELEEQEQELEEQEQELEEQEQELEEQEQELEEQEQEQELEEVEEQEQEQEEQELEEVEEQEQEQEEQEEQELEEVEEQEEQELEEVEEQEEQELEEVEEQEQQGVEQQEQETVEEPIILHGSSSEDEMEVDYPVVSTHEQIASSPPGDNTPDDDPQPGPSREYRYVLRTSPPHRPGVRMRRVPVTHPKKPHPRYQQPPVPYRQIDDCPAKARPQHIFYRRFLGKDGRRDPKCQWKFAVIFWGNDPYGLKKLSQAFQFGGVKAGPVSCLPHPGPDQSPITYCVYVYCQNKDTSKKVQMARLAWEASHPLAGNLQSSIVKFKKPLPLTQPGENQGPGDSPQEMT

[13] = target: T2, Carboxy-terminal domain RNA polymerase II polypeptide A small phosphatase 1 (Homo sapiens, UniProt Q9GZU7); assay: CTDSP1 inhibitors, concentration-response, biochemical, absorbance readout, ultra-high-throughput screen actives (AID 540297); assay type: functional
T2 sequence (Q9GZU7 whole entry): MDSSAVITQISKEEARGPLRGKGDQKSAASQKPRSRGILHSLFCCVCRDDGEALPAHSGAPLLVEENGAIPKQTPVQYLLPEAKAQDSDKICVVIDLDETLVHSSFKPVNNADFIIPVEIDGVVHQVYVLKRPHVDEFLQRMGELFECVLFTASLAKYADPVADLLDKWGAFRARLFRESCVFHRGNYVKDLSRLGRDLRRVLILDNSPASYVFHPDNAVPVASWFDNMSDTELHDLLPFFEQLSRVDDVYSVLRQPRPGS

Protein Rev [14] = target: Protein Rev (Human immunodeficiency virus type 1 group M subtype B (isolate HXB2)(HIV-1), UniProt P04618); assay: blockers of HIV Rev/RRE RNA complex – biochemical, fluorescence polarization, HIV-1, dose response (AID 434976); parameters: species or system Human immunodeficiency virus 1
[15] = target: Female germline-specific tumor suppressor gld-1 (Caenorhabditis elegans, UniProt Q17339); assay: blockers of GLD-1/TGE RNA complex formation – biochemical, fluorescence polarization, C. elegans, dose response (AID 2802);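 further: fluorescence polarization of labeled TGE RNA bound by purified gld-1 protein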
Vero [16] = assay: antiviral protection of cells from WNV – synthesized analogs, SAR follow-up (AID 2238); assay type: functional, cell-based; conditions: Chlorocebus sabaeus
Vero [17] = assay: antiviral activity against WNV, CPE read-out – cell-based (AID 2419); assay type: functional; conditions: Chlorocebus sabaeus
Vero [18] = assay: Vero 76 cell viability after compound exposure – Vero 76 cells, synthesized analogs, cytotoxicity control for West Nile virus antiviral project, SAR follow-up (AID 2414); assay type: functional; conditions: Chlorocebus sabaeus
Vero [19] = assay: host cell viability loss, Vero E6 – synthesized analogs, cytotoxicity control for West Nile virus antiviral project, SAR follow-up (AID 2244); assay type: functional; conditions: Chlorocebus sabaeus
Vero [20] = assay: Vero cell viability after compound exposure – synthesized analogs, set II, cytotoxicity control for West Nile virus antiviral project, SAR follow-up (AID 2402); assay type: functional; conditions: Chlorocebus sabaeus
[21] = A Cell Based Assay for the Identification of Probe candidate Compounds with Anti- Venezuelan Equine Encephalitis virus. [Related pubchem assays: 2409, 2419, 1621, 2238, 2405, 2024, 2065, 2402, 2414, 1635, 1650, 2244 ]; assay type: functional
[22] = HEK-293T cell viability reduction – luminescence, B-cell screen hits, cytotoxicity control for BCR NF-kB inhibitor project, dose response (AID 489021); assay type: functional, cell-based;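 further: HEK-293T cells carrying an NF-kB luciferase reporter; cells exposed to compound for about 14 hours before viability readout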
Protein Rev [23] = target: Protein Rev (Human immunodeficiency virus type 1 group M subtype B (isolate WMJ22)(HIV-1), UniProt P05866); assay: inhibitors of Rev protein–RRE RNA complex – biochemical, protein-RNA interaction, dose response (AID 842); parameters: species or system Human immunodeficiency virus 1
Chain of Protein Rev (Human immunodeficiency virus type 1 group M subtype B (isolate WMJ22)(HIV-1), UniProt P05866) (P05866 whole entry): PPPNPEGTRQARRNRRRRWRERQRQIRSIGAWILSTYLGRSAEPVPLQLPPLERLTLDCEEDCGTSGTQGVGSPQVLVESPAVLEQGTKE

[24] = target: T3, Kappa-type opioid receptor (Homo sapiens, UniProt P41145); assay type: functional
T3 sequence (P41145 whole entry): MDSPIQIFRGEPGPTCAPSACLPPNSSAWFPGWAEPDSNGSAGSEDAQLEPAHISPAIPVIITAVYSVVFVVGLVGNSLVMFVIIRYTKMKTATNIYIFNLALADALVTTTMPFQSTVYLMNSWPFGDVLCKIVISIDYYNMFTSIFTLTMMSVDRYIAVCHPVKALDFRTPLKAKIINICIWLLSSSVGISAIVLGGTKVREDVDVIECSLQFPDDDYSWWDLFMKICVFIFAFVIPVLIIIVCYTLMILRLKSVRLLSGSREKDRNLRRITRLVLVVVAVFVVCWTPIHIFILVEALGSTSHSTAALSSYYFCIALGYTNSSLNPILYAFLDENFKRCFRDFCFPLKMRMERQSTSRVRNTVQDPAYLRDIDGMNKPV

[25] = target: T4, Delta-type opioid receptor (Homo sapiens, UniProt P41143); assay: HTS Image-Based Screen for Antagonists of the DOR Receptor. [Related pubchem assays (depositor defined):AID1777, AID1785, AID1786, AID2133]; assay type: functional
T4 sequence (P41143 whole entry): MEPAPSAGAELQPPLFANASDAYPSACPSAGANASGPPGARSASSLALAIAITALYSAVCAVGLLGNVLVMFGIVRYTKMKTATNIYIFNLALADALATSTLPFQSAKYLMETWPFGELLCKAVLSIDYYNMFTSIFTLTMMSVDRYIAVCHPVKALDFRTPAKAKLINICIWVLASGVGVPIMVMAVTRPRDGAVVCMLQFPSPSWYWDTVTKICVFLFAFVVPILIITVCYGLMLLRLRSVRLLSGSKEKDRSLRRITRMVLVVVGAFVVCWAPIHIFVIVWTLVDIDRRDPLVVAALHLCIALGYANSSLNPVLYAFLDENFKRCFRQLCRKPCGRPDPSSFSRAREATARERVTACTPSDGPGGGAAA

Mu-type opioid receptor = Mu-type opioid receptor (Homo sapiens, UniProt P35372); assay: HTS Image-Based Screen for Agonists of the MOR Receptor. [Related pubchem assays (depositor defined):AID1777, AID1785, AID1786, AID2133]; assay type: functional;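 further: imaging of beta-arrestin GFP recruitment into spots after receptor activation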
[26] = target: T3, Kappa-type opioid receptor; assay type: functional; remark: listed apart in the source
[27] = target: T4, Delta-type opioid receptor; assay: HTS Image-Based Screen for Agonists of the DOR Receptor. [Related pubchem assays (depositor defined):AID1777, AID1786, AID2133]; assay type: functional
[28] = target: T3, Kappa-type opioid receptor; assay type: functional; remark: listed apart in the source
[29] = target: Nucleotide-binding oligomerization domain-containing protein 2 (Homo sapiens, UniProt Q9HC29); assay: PubChem AID 2334; assay type: functional
[30] = target: Nucleotide-binding oligomerization domain-containing protein 1 (Homo sapiens, UniProt Q9Y239); assay: blockers of NOD1 pathway activity – revised, SAR follow-up (AID 2333); assay type: functional
Chain of Nucleotide-binding oligomerization domain-containing protein 1 (Q9Y239 whole entry, the tested form may be a part): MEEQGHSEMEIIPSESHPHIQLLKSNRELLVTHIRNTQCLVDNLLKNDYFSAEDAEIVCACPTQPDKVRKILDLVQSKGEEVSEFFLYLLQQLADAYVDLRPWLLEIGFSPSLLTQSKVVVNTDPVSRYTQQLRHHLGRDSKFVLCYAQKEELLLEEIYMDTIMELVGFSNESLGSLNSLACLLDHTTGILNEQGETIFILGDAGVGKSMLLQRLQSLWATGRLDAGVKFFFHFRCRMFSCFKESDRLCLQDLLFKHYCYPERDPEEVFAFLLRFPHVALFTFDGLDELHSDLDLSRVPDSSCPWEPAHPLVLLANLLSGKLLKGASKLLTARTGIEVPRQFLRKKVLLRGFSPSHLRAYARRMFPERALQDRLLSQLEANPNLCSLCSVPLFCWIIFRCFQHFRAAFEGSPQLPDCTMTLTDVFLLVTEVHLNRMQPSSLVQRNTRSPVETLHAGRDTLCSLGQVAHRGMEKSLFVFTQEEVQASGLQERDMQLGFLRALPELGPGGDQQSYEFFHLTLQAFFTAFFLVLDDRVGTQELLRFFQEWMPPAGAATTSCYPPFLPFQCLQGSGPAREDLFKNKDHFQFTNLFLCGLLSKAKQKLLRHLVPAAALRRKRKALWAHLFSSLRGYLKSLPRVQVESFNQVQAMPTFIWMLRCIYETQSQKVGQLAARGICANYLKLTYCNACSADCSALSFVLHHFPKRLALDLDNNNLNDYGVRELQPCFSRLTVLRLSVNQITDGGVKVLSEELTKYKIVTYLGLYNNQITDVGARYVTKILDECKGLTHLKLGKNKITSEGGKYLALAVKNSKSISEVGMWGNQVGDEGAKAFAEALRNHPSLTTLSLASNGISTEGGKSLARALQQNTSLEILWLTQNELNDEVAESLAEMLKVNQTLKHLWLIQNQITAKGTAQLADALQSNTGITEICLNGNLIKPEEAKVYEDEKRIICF

Tumor necrosis factor = Tumor necrosis factor (Homo sapiens, UniProt P01375); assay: analog potency on TNFa NF-kB signaling – cell-based, revised, SAR follow-up (AID 2337); assay type: functional
HEK293 = assay: cells; conditions: Homo sapiens

## Cc1occc1C(=O)N/N=C/c1ccc(N(C)C)cc1
[1]
  AC50: 19.5 µM (active)
[2]
  AC50: 26.4 µM (active)

## CCCCC/C=C\C[C@H](O)/C=C/c1cccc(C[C@H](O)CCCCO)n1
Perilipin-1/ABHD5
  IC50: 5.05 µM (active)
[3]
  IC50: 5.28 µM (active)

## CCOC(=O)N1CCN(S(=O)(=O)c2ccc(C(=O)N(CCCN(C)C)c3nc4ccc(CC)cc4s3)cc2)CC1
[4]
  IC50: 14.2 µM (not active)
[5]
  IC50: 18.3 µM (not active)

## CC1CCCN(C(C(=O)Nc2ccc3c(c2)OCO3)c2ccccc2)C1 (stereo unspecified)
Staphylococcus aureus
  IC50: 0.162 µM (active)

## COc1ccc2nc3oc(C(=O)N4CCN(c5cccc(Cl)c5)CC4)cc3cc2c1
[6]
  IC50: 2.14 µM (active)

## Oc1ccc(Cc2ccc(O)cc2)cc1
Large T antigen
  IC50: 70.1 µM (active)

## COc1cccc2c1NC(c1cccc3ccccc13)C1CC=CC21 (stereo unspecified)
[7]
  Ki: 141 µM (inactive)

## Cc1cc(C)c(C#N)c(SCc2nc3ccccc3[nH]2)n1
[8]
  EC50: > 100 µM (not active)
[9]
  EC50: 0.262 µM (active)
[10]
  IC50: > 67.5 µM (inactive)
H4
  EC50: 44.6 µM (active)
[11]
  EC50: 14.9 µM (active)

## c1ccc(Nc2cccc(Nc3ccccc3)n2)cc1
[12]
  IC50: > 50 µM (not active)
CAAX prenyl protease 2
  AC50: 13.3 µM (active)

## CC(=O)OCC1OC(c2ccc3c(c2)OCO3)C=CC1OC(C)=O (stereo unspecified)
Cytochrome P450 2C9
  AC50: 5.01 µM (inconclusive)
Cytochrome P450 2D6
  AC50: 7.94 µM (inconclusive)

## N=C1/C(=C/c2ccc(-c3cccc(C(=O)O)c3)o2)C(=O)N=C2SC(CC(=O)N3CCOCC3)=NN12
ORF 73
  AC50: 67.7 µM (active)
[13]
  IC50: 3.21 µM (active)

## CCOC(=O)c1cc2c(ccn2C)n1CC(=O)N(Cc1ccccc1)c1ccc(F)cc1
Protein Rev [14]
  IC50: > 75.4 µM (not active)
[15]
  IC50: > 59.6 µM (inactive)

## COc1ccc(-c2csc(N(CCCN(C)C)C(=O)c3ccccc3Cl)n2)cc1
Vero [16]
  IC50: 29.5 µM (active)
Vero [17]
  IC50: > 25 µM (active)
Vero [18]
  CC50: 20.2 µM (active)
Vero [19]
  CC50: 28.4 µM (active)
Vero [20]
  CC50: 9.54 µM (active)
[21]
  IC50: 5.37 µM (active)

## O=C1CCCc2c1[nH]c1ccc(CN3CCCCC3)cc21
[22]
  IC50: > 80 µM (inactive)

## CC(NCc1ccc(N(C)C)cc1)C1CC2CCC1C2 (stereo unspecified)
Protein Rev [23]
  IC50: > 79.4 µM (not active)

## CCC(C)(C(=O)NC1CCCCC1)N(Cc1cccs1)C(=O)c1ccccn1 (stereo unspecified)
[24]
  IC50: > 5 µM (inactive)
[25]
  IC50: > 32 µM (inactive)
Mu-type opioid receptor
  EC50: > 32 µM (inactive)
[26]
  EC50: 0.0599 µM
[27]
  EC50: > 32 µM (inactive)
[28]
  EC50: < 0.5 µM

## O=C(Nc1sc2c(c1C(=O)O)CCCC2)c1cccs1
[29]
  IC50: > 20 µM (inactive)
[30]
  IC50: > 20 µM (inactive)
Tumor necrosis factor
  IC50: > 20 µM (inactive)
HEK293
  IC50: > 20 µM (inactive)
